# Measurements: patent publication US20210069333A1, “CANNABINOIDS IN COMBINATION WITH NON-CANNABINOID CHEMOTHERAPEUTIC AGENTS” (GW Pharma Limited, priority 2008, published 2021)
# Legend:
# [1] = tested on: human U87 MG astrocytoma cells; assay: Cell viability of human U87 MG astrocytoma cells in culture; type: cell-based; conditions: for IC50: Homo sapiens, U-87 MG, read-out: IC50 μM (pure cannabinoids); for reduction of cell viability in combination with THC vs agent alone: U87 MG, combined with THC, FIGS. 4 and 5
# Procedure: Tetrahydrocannabinol (THC) and cannabidiol (CBD) in the form of cannabis plant extracts were dissolved in ethanol to a concentration of 100 mM this was stored at −20° C. until required.
# Before use the cannabis plant extracts were further diluted to the desired concentration, ensuring that the concentration of ethanol was below 0.001%.
# U87 human glioma cells were used throughout this experiment. The cells were maintained at 37° C. in a humidified atmosphere with 5% CO2 and 95% air.
# Cells were cultured in a 75 cm^2 culture flask in Dulbecco's Modified Eagle Medium (DMEM), which had been supplemented with 4 mM L-glutamine, 100 units/ml penicillin, […], 1% sodium pyruvate, 1% non-essential amino acids and 10% heat-inactivated fetal bovine serum.
# The viability of the human U87 MG astrocytoma cells were examined at various cannabinoid concentrations. The THC and CBD extracts were compared against pure THC and CBD.
# The methods used were as described in Example 1 above.
# The action of THC, CBD, and a 1:1 ratio mix of THC and CBD were studied at different concentrations on two cell lines: U87MG and T98G.
# Cell viability assays were performed as described in Example 1 above.
# [2] = tested on: Human U87 MG astrocytoma cells xenografted to nude mice; assay: U87 MG astrocytoma xenograft in nude mice, tumour volume; type: in vivo; conditions: 15 mg/kg per day, injected peritumourally
# Procedure: Human U87 MG astrocytoma cells were xenografted to nude mice and the test compounds were injected peritumourally at a concentration of 15 mg/kg per day.
# [3] = tested on: U87MG cells; assay: Induced cell death in U87MG cells with ATG1 silencing or pan-caspase inhibitor; conditions: cell death induced by the THC:CBD combination, FIGS. 3b and 3c
Molecule,IC50 [1] [µM],reduction of cell viability in combination with THC vs agent alone [1],other results
"C=C(C)[C@@H]1CCC(C)=C[C@H]1c1c(O)cc(CCCCC)cc1O [CBD, cannabidiol]",0.47,–,–
"CCCCCc1cc(O)c2c(c1)OC(C)(C)[C@@H]1CCC(C)=C[C@@H]21 [THC, tetrahydrocannabinol]",0.37,–,Tumour volume relative to zero time following 15 days of treatment [2]: 5.1 ± 0.4
N.N.[Cl][Pt][Cl] [cisplatin],–,more efficient at reducing cell viability,–
CC/C(=C(\c1ccccc1)c1ccc(OCCN(C)C)cc1)c1ccccc1 [tamoxifen],–,more efficient at reducing cell viability,–
Z-VAD,–,–,effect on induced cell death [3]: prevent induced cell death
